Results filed as inconclusive are left out.
Test system: Nude mice, LX-1 lung xenograft intrarenal, tumor weight T/C
Test: NCI In Vivo Anticancer Drug Screen. Data for tumor model Human Lung LX-1 Xenograft (intrarenal inoculation) in NU/NU BALB/C (nude) mice
Conditions: endpoint: mean tumor weight change, higher = larger tumour
Protocol: The antitumor activity of compounds was measured in mice bearing transplantable tumors. Survival or tumor size were measured and the results are expressed as the measurement made in the treated group (T) divided by the measurement made in the vehicle treated control group (C). The tumor model used in this assay is Human Lung LX-1 Xenograft (intrarenal inoculation) in NU/NU BALB/C (nude) mice

[1] = dose: 75.0 mg/kg/injection, schedule: Q04DX003 (ip), vehicle: saline
[2] = dose: 600.0 mg/kg/injection, schedule: Q04DX003 (ip), vehicle: saline
[3] = dose: 1200.0 mg/kg/injection, schedule: Q04DX003 (ip), vehicle: saline
[4] = dose: 300.0 mg/kg/injection, schedule: Q04DX003 (sc), vehicle: saline
[5] = dose: 600.0 mg/kg/injection, schedule: Q04DX003 (sc), vehicle: saline
[6] = dose: 1200.0 mg/kg/injection, schedule: Q04DX003 (sc), vehicle: saline
[7] = dose: 50.0 mg/kg/injection, schedule: Q01DX010 (sc), vehicle: Klucel (hydroxypropylcellulose) (HPC)
[8] = dose: 100.0 mg/kg/injection, schedule: Q01DX010 (sc), vehicle: Klucel (hydroxypropylcellulose) (HPC)
[9] = dose: 200.0 mg/kg/injection, schedule: Q01DX010 (sc), vehicle: Klucel (hydroxypropylcellulose) (HPC)
[10] = dose: 400.0 mg/kg/injection, schedule: Q01DX010 (sc), vehicle: Klucel (hydroxypropylcellulose) (HPC)
[11] = dose: 150.0 mg/kg/injection, schedule: Q04DX003 (ip), vehicle: saline
[12] = dose: 300.0 mg/kg/injection, schedule: Q04DX003 (sc), vehicle: Klucel (hydroxypropylcellulose) (HPC)
[13] = dose: 600.0 mg/kg/injection, schedule: Q04DX003 (sc), vehicle: Klucel (hydroxypropylcellulose) (HPC)
[14] = dose: 1200.0 mg/kg/injection, schedule: Q04DX003 (sc), vehicle: Klucel (hydroxypropylcellulose) (HPC)
[15] = dose: 2400.0 mg/kg/injection, schedule: Q04DX003 (sc), vehicle: Klucel (hydroxypropylcellulose) (HPC)
[16] = dose: 300.0 mg/kg/injection, schedule: Q04DX003 (sc), vehicle: saline with Tween-80
[17] = dose: 600.0 mg/kg/injection, schedule: Q04DX003 (sc), vehicle: saline with Tween-80
[18] = dose: 1200.0 mg/kg/injection, schedule: Q04DX003 (sc), vehicle: saline with Tween-80
[19] = dose: 2400.0 mg/kg/injection, schedule: Q04DX003 (sc), vehicle: saline with Tween-80
[20] = dose: 200.0 mg/kg/injection, schedule: Q01DX010 (sc), vehicle: saline with Tween-80
[21] = dose: 400.0 mg/kg/injection, schedule: Q01DX010 (sc), vehicle: saline with Tween-80

## OCC(O)C(O)C(O)C(O)CO (stereo not drawn)
[1]
  T/C: 108 % of control
[2]
  T/C: 109 % of control
[3]
  T/C: 94 % of control

## CCN(CC)CCOCCO
dose: 150.0 mg/kg/injection, schedule: Q04DX003 (sc), vehicle: saline
  T/C: 109 % of control
[4]
  T/C: 105 % of control
[5]
  T/C: 86 % of control
[6]
  T/C: 77 % of control

## C[C@@]1(CO)[C@H](O)CC[C@@]2(C)[C@H]1CC[C@H]1C[C@@H]3C[C@@]12CC[C@@]3(O)COC(=O)CN
dose: 100.0 mg/kg/injection, schedule: Q01DX010 (sc), vehicle: saline + alcohol
  T/C: 109 % of control
dose: 200.0 mg/kg/injection, schedule: Q01DX010 (sc), vehicle: saline + alcohol
  T/C: 54 % of control

## O=CC(S)CO (stereo not drawn)
dose: 100.0 mg/kg/injection, schedule: Q04DX003 (sc), vehicle: suspension in saline
  T/C: 94 % of control
dose: 200.0 mg/kg/injection, schedule: Q04DX003 (sc), vehicle: suspension in saline
  T/C: 94 % of control
dose: 400.0 mg/kg/injection, schedule: Q04DX003 (sc), vehicle: suspension in saline
  T/C: 84 % of control

## Nc1nc(=S)c2ncn(C3CC(O)C(CO)O3)c2[nH]1 (stereo not drawn)
[7]
  T/C: 152 % of control
[8]
  T/C: 118 % of control
[9]
  T/C: 73 % of control
[10]
  T/C: 107 % of control

## CN(C)CCC(=O)C(=Cc1ccc(O)cc1)C(=O)CCN(C)C
[1]
  T/C: 95 % of control
[11]
  T/C: 116 % of control

## COc1cccc2c1C(=O)c1c(O)c3c(c(O)c1C2=O)CC(O)(/C(C)=N/NC(=O)CCC(=O)N/N=C(\C)C1(O)Cc2c(O)c4c(c(O)c2C(OC2CC(N)C(O)C(C)O2)C1)C(=O)c1c(OC)cccc1C4=O)CC3OC1CC(N)C(O)C(C)O1 (stereo not drawn)
dose: 6.25 mg/kg/injection, schedule: Q01DX010 (sc), vehicle: water
  T/C: 65 % of control
dose: 12.5 mg/kg/injection, schedule: Q01DX010 (sc), vehicle: water
  T/C: 23 % of control

## Nc1ccn(C2OC(CO)C(O)C2O)c(=O)n1 (stereo not drawn)
dose: 15.63 mg/kg/injection, schedule: Q01DX010 (sc), vehicle: water
  T/C: 56 % of control
dose: 31.25 mg/kg/injection, schedule: Q01DX010 (sc), vehicle: water
  T/C: 91 % of control
dose: 62.5 mg/kg/injection, schedule: Q01DX010 (sc), vehicle: water
  T/C: 55 % of control
dose: 125.0 mg/kg/injection, schedule: Q01DX010 (sc), vehicle: water
  T/C: 2 % of control
dose: 500.0 mg/kg/injection, schedule: Q04DX003 (sc), vehicle: saline
  T/C: 87 % of control
dose: 1000.0 mg/kg/injection, schedule: Q04DX003 (sc), vehicle: saline
  T/C: 61 % of control

## C=C(C)C(=O)O[C@H]1CC2=C[C@@H](C[C@@]3(C)O[C@@H]3[C@H]3OC(=O)C(=C)[C@@H]31)OC2=O
dose: 75.0 mg/kg/injection, schedule: Q04DX003 (sc), vehicle: Klucel (hydroxypropylcellulose) (HPC)
  T/C: 64 % of control
dose: 150.0 mg/kg/injection, schedule: Q04DX003 (sc), vehicle: Klucel (hydroxypropylcellulose) (HPC)
  T/C: 91 % of control
[12]
  T/C: 58 % of control

## CC1=C/C(O)CC(=O)Cc2nc(co2)C(=O)N2CCC=C2C(=O)OC(C(C)C)C(C)/C=C\C(=O)NC/C=C\1 (stereo not drawn)
[12]
  T/C: 102 % of control
[13]
  T/C: 90 % of control
[14]
  T/C: 69 % of control
[15]
  T/C: 82 % of control

## CCOC(=O)c1cn(C)c2c1C(O)=C(C(=O)OC)CC(=O)N2
[16]
  T/C: 99 % of control
[17]
  T/C: 55 % of control
[18]
  T/C: 111 % of control
[19]
  T/C: 154 % of control

## Nc1nc(N)c(N=O)c(Nc2ccc(Br)cc2)n1
[16]
  T/C: 124 % of control
[17]
  T/C: 95 % of control
[18]
  T/C: 229 % of control
[19]
  T/C: 93 % of control

## N/C=N/O
dose: 200.0 mg/kg/injection, schedule: Q01DX010 (sc), vehicle: saline
  T/C: 180 % of control
dose: 400.0 mg/kg/injection, schedule: Q01DX010 (sc), vehicle: saline
  T/C: 161 % of control

## COC1=C(OC)C(=O)C(C/C=C(\C)CC/C=C(\C)CC/C=C(\C)CC/C=C(\C)CC/C=C(\C)CC/C=C(\C)CC/C=C(\C)CC/C=C(\C)CC/C=C(\C)CCC=C(C)C)=C(C)C1=O
dose: 50.0 mg/kg/injection, schedule: Q01DX010 (sc), vehicle: saline with Tween-80
  T/C: 91 % of control
dose: 100.0 mg/kg/injection, schedule: Q01DX010 (sc), vehicle: saline with Tween-80
  T/C: 90 % of control
[20]
  T/C: 102 % of control
[21]
  T/C: 104 % of control

## CCOC(C)C(/C=N/NC(N)=S)=NNC(N)=S (stereo not drawn)
[20]
  T/C: 231 % of control
[21]
  T/C: 233 % of control
dose: 800.0 mg/kg/injection, schedule: Q01DX010 (sc), vehicle: saline with Tween-80
  T/C: 78 % of control

## CC(=O)O[C@H]1C(=O)[C@@]2(C)[C@H]([C@H](OC(=O)c3ccccc3)[C@]3(O)C[C@H](OC(=O)[C@H](O)[C@@H](NC(=O)c4ccccc4)c4ccccc4)C(C)=C1C3(C)C)[C@]1(OC(C)=O)CO[C@@H]1C[C@@H]2O
[7]
  T/C: 63 % of control
[8]
  T/C: 93 % of control
[9]
  T/C: 68 % of control
[10]
  T/C: 51 % of control

## Nc1ccn([C@@H](C=O)O[C@@H](C=O)CO)c(=O)n1
dose: 200.0 mg/kg/injection, schedule: Q04DX003 (sc), vehicle: saline
  T/C: 108 % of control

## N#CC(OC1OC(COC2OC(CO)C(O)C(O)C2O)C(O)C(O)C1O)c1ccccc1 (stereo not drawn)
[4]
  T/C: 162 % of control
[5]
  T/C: 115 % of control
[6]
  T/C: 193 % of control
dose: 2400.0 mg/kg/injection, schedule: Q04DX003 (sc), vehicle: saline
  T/C: 158 % of control

## S=P(N1CC1)(N1CC1)N1CC1
dose: 4.0 mg/kg/injection, schedule: Q01DX010 (sc), vehicle: saline
  T/C: 77 % of control

## CC(O)CCC(=O)c1ccoc1 (stereo not drawn)
dose: 15.0 mg/kg/injection, schedule: Q01DX010 (ip), vehicle: saline
  T/C: 75 % of control
dose: 30.0 mg/kg/injection, schedule: Q01DX010 (ip), vehicle: saline
  T/C: 121 % of control

## O=NN(CCCl)C(=O)NC1CCC(=O)NC1=O (stereo not drawn)
dose: 1.56 mg/kg/injection, schedule: Q01DX010 (sc), vehicle: saline with Tween-80
  T/C: 25 % of control
dose: 3.13 mg/kg/injection, schedule: Q01DX010 (sc), vehicle: saline with Tween-80
  T/C: 12 % of control
dose: 5.2 mg/kg/injection, schedule: Q04DX003 (sc), vehicle: saline with Tween-80
  T/C: 58 % of control
dose: 6.25 mg/kg/injection, schedule: Q01DX010 (sc), vehicle: saline with Tween-80
  T/C: 1 % of control
dose: 10.4 mg/kg/injection, schedule: Q04DX003 (sc), vehicle: saline with Tween-80
  T/C: 3 % of control
dose: 12.5 mg/kg/injection, schedule: Q01DX010 (sc), vehicle: saline with Tween-80
  T/C: -100 % of control
dose: 20.8 mg/kg/injection, schedule: Q04DX003 (sc), vehicle: saline with Tween-80
  T/C: -47 % of control

## COC(=O)Nc1cn2cc(C(=O)c3cccs3)ccc2n1
[12]
  T/C: 94 % of control
[13]
  T/C: 96 % of control
[14]
  T/C: 54 % of control
[15]
  T/C: 99 % of control

## O=CC(O)C(O)C(O)C(O)CO (stereo not drawn)
[1]
  T/C: 103 % of control
[11]
  T/C: 101 % of control
dose: 300.0 mg/kg/injection, schedule: Q04DX003 (ip), vehicle: saline
  T/C: 115 % of control
[2]
  T/C: 88 % of control
[3]
  T/C: 95 % of control
